Data: PMC10327353 (Breast Cancer Research : BCR, 2023)

Tests used:
[1] = target: T1, wild-type EGFR (Homo sapiens, UniProt P00533); assay: pEGFR MSD assay in A431 cells; assay type: cell-based; details: A431, 4 hrs treatment, EGF stimulation
T1 construct: endogenous in cells; host or cells: A431
Procedure: (§1) A431 and BT474C1-Luci Mono1 cells were seeded in 96-well plates at 20,000 cells/well in DMEM medium containing 1% FBS. After overnight incubation, all cells were treated with compounds at a series of concentrations for 4 hrs. For A431 cell line, an extra stimulation with recombinant human EGF (100 ng/ml for 10 minutes) is applied to activate wild-type EGFR following compound treatment. pEGFR^Y1068 and total EGFR levels were measured by an electro chemiluminescent method (MULTI-SPOT®96 4-Spot HB Prototype EGFR Triplex […]: pEGFR (Y1068), Total EGFR; MESO SCALE DISCOVERY, Cat# N45ZB-1) with MSD SECTOR® Imager, which outputs the ratio of pEGFR/total EGFR for each well. pHER2^Y1248 and total HER2 levels were measured similarly using pHER2 (Y1248) Assay Whole Cell Lysate Kit (MESO SCALE DISCOVERY, Cat# K151CLD-3). The percentage of inhibition was calculated as: % Inhibition = 100 x [1 - (ratio of the sample well - ratio of Min ctrl well)/ (ratio of Max ctrl well - ratio of Min ctrl well)].

[2] = target: HER2 (Homo sapiens, UniProt P04626); assay: pHER2 MSD assay in BT474C1 cells; assay type: cell-based; design: endogenous in cells; host or cells: BT474C1-Luci Mono1 (BT474 transfected with luciferase only); details: BT474C1, 4 hrs treatment
Chain of HER2 (P04626 23-1255): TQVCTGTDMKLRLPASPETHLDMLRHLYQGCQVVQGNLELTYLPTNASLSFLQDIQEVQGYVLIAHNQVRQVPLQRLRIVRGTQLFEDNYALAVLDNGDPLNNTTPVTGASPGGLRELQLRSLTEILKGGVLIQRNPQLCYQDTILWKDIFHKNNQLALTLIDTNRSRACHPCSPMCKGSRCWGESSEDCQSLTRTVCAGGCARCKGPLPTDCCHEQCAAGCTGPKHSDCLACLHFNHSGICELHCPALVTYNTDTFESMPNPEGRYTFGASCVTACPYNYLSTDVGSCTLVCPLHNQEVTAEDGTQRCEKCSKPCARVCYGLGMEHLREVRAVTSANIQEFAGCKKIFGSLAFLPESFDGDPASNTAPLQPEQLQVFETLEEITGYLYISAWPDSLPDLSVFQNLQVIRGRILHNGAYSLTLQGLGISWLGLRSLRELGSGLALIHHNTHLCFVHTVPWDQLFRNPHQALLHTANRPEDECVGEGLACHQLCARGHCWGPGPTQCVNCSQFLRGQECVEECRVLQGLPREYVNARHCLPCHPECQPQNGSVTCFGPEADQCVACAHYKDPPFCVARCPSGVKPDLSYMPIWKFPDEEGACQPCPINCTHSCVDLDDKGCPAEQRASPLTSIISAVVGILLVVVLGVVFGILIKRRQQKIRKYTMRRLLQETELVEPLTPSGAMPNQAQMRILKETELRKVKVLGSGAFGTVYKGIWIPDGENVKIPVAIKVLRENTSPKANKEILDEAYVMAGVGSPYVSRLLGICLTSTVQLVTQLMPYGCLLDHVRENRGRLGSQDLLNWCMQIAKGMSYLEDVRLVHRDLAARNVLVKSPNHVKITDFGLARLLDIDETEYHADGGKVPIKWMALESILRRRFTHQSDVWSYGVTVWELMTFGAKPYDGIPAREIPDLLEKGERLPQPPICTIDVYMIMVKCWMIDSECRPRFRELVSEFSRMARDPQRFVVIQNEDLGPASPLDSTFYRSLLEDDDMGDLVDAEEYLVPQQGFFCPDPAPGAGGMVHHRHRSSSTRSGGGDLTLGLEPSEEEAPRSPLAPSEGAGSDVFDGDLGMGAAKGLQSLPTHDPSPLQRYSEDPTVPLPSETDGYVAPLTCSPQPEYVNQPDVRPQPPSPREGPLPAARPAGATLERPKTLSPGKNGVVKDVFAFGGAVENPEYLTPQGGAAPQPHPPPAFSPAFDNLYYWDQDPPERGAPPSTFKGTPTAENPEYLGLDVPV
Procedure: as §1

[3] = target: T2, P-gp (MDR1) (Homo sapiens, UniProt P08183); assay: P-gp efflux ratio, bi-directional transport assay; assay type: in vitro ADME
T2 construct: expressed in transfected cells; host or cells: MDCKII-MDR1
T2 sequence (P08183 whole entry): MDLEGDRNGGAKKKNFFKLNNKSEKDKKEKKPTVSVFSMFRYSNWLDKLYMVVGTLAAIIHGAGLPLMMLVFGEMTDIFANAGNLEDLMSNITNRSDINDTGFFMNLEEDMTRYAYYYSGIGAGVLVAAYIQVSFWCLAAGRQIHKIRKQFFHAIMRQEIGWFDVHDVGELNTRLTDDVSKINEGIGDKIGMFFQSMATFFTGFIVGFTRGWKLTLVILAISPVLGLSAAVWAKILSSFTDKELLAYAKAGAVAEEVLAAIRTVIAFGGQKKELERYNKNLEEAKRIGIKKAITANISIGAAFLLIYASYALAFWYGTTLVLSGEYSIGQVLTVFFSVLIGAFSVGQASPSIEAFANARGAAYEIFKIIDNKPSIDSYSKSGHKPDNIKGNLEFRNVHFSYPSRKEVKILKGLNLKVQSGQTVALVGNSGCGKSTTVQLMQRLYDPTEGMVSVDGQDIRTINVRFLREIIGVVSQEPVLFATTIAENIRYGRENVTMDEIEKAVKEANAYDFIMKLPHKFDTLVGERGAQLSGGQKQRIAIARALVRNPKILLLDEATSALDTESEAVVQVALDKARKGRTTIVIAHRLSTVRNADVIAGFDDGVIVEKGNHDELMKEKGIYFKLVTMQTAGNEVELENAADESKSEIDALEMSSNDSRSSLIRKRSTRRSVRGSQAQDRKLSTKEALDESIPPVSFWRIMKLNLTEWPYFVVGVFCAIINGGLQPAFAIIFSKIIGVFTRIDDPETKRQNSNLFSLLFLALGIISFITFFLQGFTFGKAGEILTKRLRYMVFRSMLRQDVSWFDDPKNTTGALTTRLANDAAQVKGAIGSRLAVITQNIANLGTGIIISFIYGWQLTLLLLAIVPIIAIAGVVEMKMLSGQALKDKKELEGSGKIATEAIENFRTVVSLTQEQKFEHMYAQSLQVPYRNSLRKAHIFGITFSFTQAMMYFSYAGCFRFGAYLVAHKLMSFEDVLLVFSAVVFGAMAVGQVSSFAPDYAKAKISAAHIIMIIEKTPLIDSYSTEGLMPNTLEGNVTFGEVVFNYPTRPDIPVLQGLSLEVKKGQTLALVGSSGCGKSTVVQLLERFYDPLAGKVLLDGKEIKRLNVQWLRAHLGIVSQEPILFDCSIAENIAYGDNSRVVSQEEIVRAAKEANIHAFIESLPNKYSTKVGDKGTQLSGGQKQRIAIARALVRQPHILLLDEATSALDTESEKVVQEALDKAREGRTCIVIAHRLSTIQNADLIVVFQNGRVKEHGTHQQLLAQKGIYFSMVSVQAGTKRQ
Source text: Passive permeability (Papp) characterizes the rate across the cell membrane due to passive diffusion. A high permeability enables the rapid establishment of equilibrium among plasma, CSF, and brain compartments. Except for passive permeability, sufficient unbound drug concentration in the brain is governed by efflux transporters, including P-gp (MDR1, ABCB1) and BCRP, at BBB. Efflux ratio (ER) reflects the liability of a compound to be pumped out of the brain by BBB efflux transporters, which is indicated by the distribution disequilibrium between the plasma and the brain compartments.
[…] The adjusted efflux ratio was used to determine if DZD1516/DZ2678 underwent active efflux. Verapamil, a P-glycoprotein (P-gp) inhibitor, was used to identify if any active transport processes were mediated through P-gp. The apical-to-basolateral (A-B) and basolateral-to-apical (B-A) transport of DZD1516/DZ2678 in HBSS (25 mM HEPES, pH 7.4) with 0.1% BSA was measured across MDCKII-MDR1 cell monolayers in the absence and presence of the P-gp inhibitor, verapamil (100 μM). The apical-to-basolateral (A-B) and basolateral-to-apical (B-A) transport of DZD1516/DZ2678 in HBSS (25 mM HEPES, pH 7.4) with 0.1% BSA was also measured across MDCKII cell monolayers in the absence and presence of the P-gp inhibitor, verapamil. Incubations were performed at approximately 37°C for 120 min, with the functionality of the test system being confirmed using 5 μM digoxin as a positive control substrate. […] determined by quantifying substrate concentration in the incubation medium of the donor compartment at the beginning of the incubation period and both donor and receiver compartments at the end of the incubation period. The data was used to calculate the apparent permeability (Papp). All incubations were performed in triplicate, and the integrity of the cell monolayers was confirmed using the marker Lucifer yellow.

[4] = system: BT474C1 cells; assay: Cell proliferation assay (CellTiter-Glo), BT474C1; assay type: cell-based, human; details: BT474C1, 72 hrs
Procedure: BT474C1-Luci Mono1 cells were seeded in 384-well plates at 1500 cells/well in DMEM medium containing 10% FBS and 1 mM Oxaloacetic acid (OAA). A431 cells were seeded in 384-well plates at 1,000 cells/well in DMEM medium containing 10% FBS. After overnight incubation, cells were treated with compounds at various concentrations for 3 days. Then cell viability was measured using a CellTiter-Glo Luminescent Cell Viability Assay from Promega Corp. according to the manufacturer's instructions.

[5] = Human hepatocyte intrinsic clearance; assay type: in vitro ADME; details: human hepatocytes; for hepatocyte CLint: read-out: Human Heps Clint
[6] = system: P-gp-BCRP; assay: P-gp-BCRP efflux ratio, cellular transport assay; assay type: in vitro ADME, human; details: human, not told; 1 µM
Procedure: A discussion of the structure–activity relationship (SAR) cumulated in the design of DZD1516 (Fig. 1) is as follows. The HER2 inhibitory potency screening for SAR development was performed using HER2 and EGFR enzymatic assays. The cellular activity was evaluated in HER2+ cell line BT474C1 by measuring pHER2 and antiproliferation activities. Cellular transport assays measuring the permeability and efflux ratio of compounds in cells expressing human P-gp (MDR1) and BCRP were used to provide essential information for assessing their BBB penetration potential.

T1 sequence (P00533 25-1210): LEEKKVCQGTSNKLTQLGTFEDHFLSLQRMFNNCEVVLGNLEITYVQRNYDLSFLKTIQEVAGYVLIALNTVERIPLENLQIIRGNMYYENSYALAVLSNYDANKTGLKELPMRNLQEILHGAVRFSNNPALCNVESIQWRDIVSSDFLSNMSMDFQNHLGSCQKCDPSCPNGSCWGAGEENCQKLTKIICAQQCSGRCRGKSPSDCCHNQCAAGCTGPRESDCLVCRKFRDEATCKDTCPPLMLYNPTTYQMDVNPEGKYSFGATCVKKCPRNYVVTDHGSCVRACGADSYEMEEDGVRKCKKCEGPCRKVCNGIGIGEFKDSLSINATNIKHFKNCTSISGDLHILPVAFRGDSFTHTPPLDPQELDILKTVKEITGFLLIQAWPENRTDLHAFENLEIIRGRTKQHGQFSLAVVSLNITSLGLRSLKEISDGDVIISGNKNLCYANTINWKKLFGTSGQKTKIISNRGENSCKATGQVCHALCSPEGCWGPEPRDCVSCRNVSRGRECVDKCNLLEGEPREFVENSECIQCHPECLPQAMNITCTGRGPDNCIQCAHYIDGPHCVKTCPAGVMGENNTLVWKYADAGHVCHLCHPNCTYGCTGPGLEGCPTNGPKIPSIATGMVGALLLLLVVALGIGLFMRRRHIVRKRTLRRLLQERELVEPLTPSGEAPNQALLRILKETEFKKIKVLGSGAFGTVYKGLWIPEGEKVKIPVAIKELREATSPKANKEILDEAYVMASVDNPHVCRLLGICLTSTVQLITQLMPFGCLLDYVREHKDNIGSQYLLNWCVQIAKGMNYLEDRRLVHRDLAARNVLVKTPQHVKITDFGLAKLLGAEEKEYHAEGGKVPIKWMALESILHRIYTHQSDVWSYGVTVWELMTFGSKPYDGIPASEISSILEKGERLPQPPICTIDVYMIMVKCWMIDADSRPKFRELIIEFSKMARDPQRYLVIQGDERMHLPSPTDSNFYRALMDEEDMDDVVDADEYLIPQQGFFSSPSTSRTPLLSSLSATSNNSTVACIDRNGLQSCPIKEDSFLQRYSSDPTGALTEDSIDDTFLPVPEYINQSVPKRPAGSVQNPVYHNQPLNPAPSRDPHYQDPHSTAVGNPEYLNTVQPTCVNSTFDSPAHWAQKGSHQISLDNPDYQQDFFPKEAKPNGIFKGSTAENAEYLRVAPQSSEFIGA

Structure (SMILES) | IC50 [1] | IC50 [2] | GI50 [4] | GI50 ([4]; Homo sapiens) | hepatocyte CLint [5] | further results
COc1cc(O[C@@H]2CCN(C)CC2(F)F)c2c(Nc3ccc(Oc4ccn5ncnc5c4)c(C)c3)ncnc2c1 [Cpd-4] | – | 44 nM | 67 nM | – | – | Human Heps Clint [5]: 20.1 (µL/min)/(10^6 cells)
CCOc1cc2ncc(C#N)c(Nc3ccc(OCc4ccccn4)c(Cl)c3)c2cc1NC(=O)/C=C/CN(C)C [Neratinib, reference compound] | – | – | – | 1.3 nM | 7.7 µL/min/1e6 cells | –
Cc1cc(Nc2ncnc3ccc(NC4=NC(C)(C)CO4)cc23)ccc1Oc1ccn2ncnc2c1 [Tucatinib, reference compound] | 2770 nM | 1.7 nM | – | 10 nM | 12.5 µL/min/1e6 cells | efflux ratio at 1 µM [6]: 64; efflux ratio at 120 min, 1 µM ([3]; human, MDCK-MDR1, pH 7.4): 6.2

The next lines start with results.

IC50 [1] | IC50 [2] | GI50 [4] | GI50 ([4]; Homo sapiens) | Structure (SMILES) | hepatocyte CLint [5] | further results
> 10000 nM | 18 nM | 91 nM | – | Cc1cc(Nc2ncnc3cccc(OC4CCN(C)CC4)c23)ccc1Oc1ccn2ncnc2c1 [Cpd-1] | – | Efflux ratio P-gp @1 µM [3]: 1.5
– | – | – | 13 nM | CS(=O)(=O)CCNCc1ccc(-c2ccc3ncnc(Nc4ccc(OCc5cccc(F)c5)c(Cl)c4)c3c2)o1 [Lapatinib] | – | –
– | 0.66 nM | – | 0.7 nM | CCOc1cc2ncc(C#N)c(Nc3ccc(OCc4ccccn4)c(Cl)c3)c2cc1NC(=O)/C=C/[C@H]1CCCN1C [Pyrotinib, reference compound] | – | –
